Results as given in the supplement of paper PMC10307832.

Legend:
Test in all cases: relative viability (nuclei count vs DMSO), 5 days (fraction); higher = more cells survive
[1] = compound: CN1CCC(CNc2ccc3ncc(-c4cccc(OC(F)(F)F)c4)n3n2)CC1 [SGI-1776] + Cc1nc(NC(=O)N2CCC[C@H]2C(N)=O)sc1-c1ccnc(C(C)(C)C(F)(F)F)c1 [Alpelisib] (partner 2 µM)
Procedure, shortened: (§1)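 The day after seeding in 1536-well plates, lung cancer cell lines were treated by pin tool with a single drug, or with a fixed anchor-drug dose together with five library-drug doses (not always all listed) in √10 steps. After 5 days, a combined fix-and-stain solution (final 0.05% Triton X-100, 1% formaldehyde, 1 ug/ml Hoechst) was added. Nuclei counted on 4× images gave relative viability as treated counts over vehicle counts, reported as the median of duplicate plates.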

[2] = compound: CN1CCC(CNc2ccc3ncc(-c4cccc(OC(F)(F)F)c4)n3n2)CC1 [SGI-1776] + Cc1nc(Nc2ncc(C(=O)Nc3c(C)cccc3Cl)s2)cc(N2CCN(CCO)CC2)n1 [Dasatinib] (partner 0.075 µM)
Procedure, shortened: as §1

[3] = compound: C1COCCN1C2=NC(=NC3=C2OC4=C3C=CC=N4)C5=CC(=CC=C5)NC(=O)C6=CN=C(C=C6)N + C[C@]1(O)C[C@@H](c2nc(-c3ccc4ccc(-c5ccccc5)nc4c3)c3c(N)nccn32)C1 [Linsitinib] (partner 1 µM)
Procedure, shortened: as §1

[4] = compound: C1COCCN1C2=NC(=NC3=C2OC4=C3C=CC=N4)C5=CC(=CC=C5)NC(=O)C6=CN=C(C=C6)N + O=C(c1cc(Cc2n[nH]c(=O)c3ccccc23)ccc1F)N1CCN(C(=O)C2CC2)CC1 [Olaparib] (partner 8 µM)
Procedure, shortened: as §1

Row | Cell Line | relative viability ([1]; first compound 0.08 µM) | relative viability ([1]; first compound 0.8 µM) | relative viability ([1]; first compound 2.53 µM) | relative viability ([1]; first compound 8 µM) | relative viability ([2]; first compound 0.08 µM) | relative viability ([2]; first compound 0.8 µM) | relative viability ([2]; first compound 2.53 µM) | relative viability ([2]; first compound 8 µM) | relative viability ([3]; first compound 0.02 µM) | relative viability ([3]; first compound 0.06325 µM) | relative viability ([3]; first compound 0.2 µM) | relative viability ([3]; first compound 0.6325 µM) | relative viability ([3]; first compound 2 µM) | relative viability ([4]; first compound 0.02 µM) | relative viability ([4]; first compound 0.06325 µM) | relative viability ([4]; first compound 0.2 µM) | relative viability ([4]; first compound 0.6325 µM) | relative viability ([4]; first compound 2 µM)
1 | NCI-H460 | 0.488 | 0.481 | 0.433 | 0.121 | 0.52 | 0.543 | 0.508 | 0.299 | 0.839 | 0.959 | 0.834 | 0.583 | 0.225 | 0.578 | 0.537 | 0.376 | 0.413 | 0.182
2 | LCLC-97TM1 | 0.195 | 0.238 | 0.239 | 0.22 | 0.783 | 0.938 | 0.85 | 0.949 | – | 0.199 | 0.174 | 0.232 | 0.22 | 0.533 | 0.388 | 0.341 | 0.33 | 0.287
3 | HCC-78 | 0.37 | 0.333 | 0.315 | 0.248 | 0.416 | 0.455 | 0.369 | 0.366 | 0.425 | 0.329 | 0.569 | 0.492 | 0.415 | 0.751 | 0.896 | 0.85 | 0.842 | 0.583
4 | NCI-H1975 | 0.674 | 0.598 | 0.501 | 0.322 | 0.385 | 0.369 | 0.253 | 0.232 | 0.882 | 0.983 | 0.897 | 0.905 | 0.476 | 0.772 | 0.865 | 1 | 0.86 | 0.381
